Assay results reported in the supplement of paper PMC10307832.

compound: CN(C)C(=N)NC(=N)N [Metformin] + COc1cc2c(Oc3ccc(NC(=O)C4(C(=O)Nc5ccc(F)cc5)CC4)cc3F)ccnc2cc1OCCCN1CCOCC1 [Foretinib] (partner 0.25 µM); assay: relative viability (nuclei count vs DMSO), 5 days (fraction); higher = more cells survive; settings: first compound 10 µM
Procedure, shortened: (§1)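 Relative viability is defined as nuclei in treated wells over nuclei in vehicle wells. Duplicate plates were run and medians reported. Lung cancer cell lines in 1536-well plates were dosed by pin tool one day after seeding, with one drug or with a fixed anchor-drug dose plus five library-drug doses (not always all listed) in √10 steps, and nuclei were counted after 5 days.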

Cell Line	relative viability
A549	0.867
A-427	1.12
ABC-1	1.48
BEN	1.08
CAL-12T	1.25
COR-L23	0.88
COR-L 105	1.23
Calu-6	0.809
ChaGo-K-1	0.924
EBC-1	0.0914
EKVX	0.456
EMC-BAC-2	1.03
EPLC-272H	0.864
H3255	0.863
HCC-78	0.752
HCC-366	1.09
HOP-62	0.882

Cell Line	relative viability
IA-LM	1.18
NCI-H520	0.765
NCI-H661	0.809
NCI-H1299	1.09
NCI-H1563	0.99
NCI-H1623	0.799
NCI-H1650	1.41
NCI-H1703	0.497
NCI-H2009	1.21
NCI-H2023	0.99
NCI-H2228	0.804
NCI-H2342	0.972
SK-LU-1	0.807
SK-MES-1	0.915
SW 900	0.919
SW 1573	0.955
UMC-11	1.14

same assay, conditions: first compound 31.62 µM

Cell Line	relative viability
201T	1.21
A549	0.9
A-427	1.2
ABC-1	1.14
BEN	1.25
CAL-12T	1.32
COR-L23	0.861
COR-L 105	1.38
Calu-6	0.878
ChaGo-K-1	1.07
EBC-1	0.09
EKVX	1.03
EMC-BAC-2	1.1
EPLC-272H	0.909
H3255	0.96
HARA	1.03
HCC-15	1.06
HCC-78	0.674
HCC-366	0.928
HCC-827	0.899

Cell Line	relative viability
HOP-62	1.08
IA-LM	1.27
LC-2-ad	0.788
NCI-H520	0.74
NCI-H661	0.877
NCI-H1299	1.12
NCI-H1563	1.02
NCI-H1623	0.811
NCI-H1650	1.34
NCI-H1703	0.504
NCI-H2009	1.31
NCI-H2023	0.828
NCI-H2228	0.862
NCI-H2342	1.15
SK-LU-1	0.77
SK-MES-1	0.888
SW 900	0.884
SW 1573	1.04
UMC-11	1.09

same assay, conditions: first compound 100 µM

Cell Line	relative viability
201T	1.38
A549	0.9
A-427	0.954
ABC-1	1.05
BEN	1.04
CAL-12T	1.04
COR-L23	0.863
COR-L 105	1.23
Calu-6	0.917
ChaGo-K-1	0.959
EKVX	0.886
EMC-BAC-2	1.09
EPLC-272H	0.978
H3255	0.91
HARA	1.21
HCC-15	1.1
HCC-78	0.894
HCC-366	0.881
HCC-827	0.974

Cell Line	relative viability
HOP-62	1.08
IA-LM	1.43
LC-2-ad	0.923
NCI-H520	0.783
NCI-H661	0.879
NCI-H1299	1.14
NCI-H1563	1.09
NCI-H1623	1.02
NCI-H1650	1.42
NCI-H1703	0.549
NCI-H2009	1.31
NCI-H2023	0.854
NCI-H2228	1.09
NCI-H2342	1.07
SK-LU-1	0.769
SK-MES-1	0.874
SW 900	0.736
SW 1573	0.914
UMC-11	1.05

same assay, conditions: first compound 316.23 µM

Cell Line	relative viability
201T	1.01
A549	0.853
A-427	0.981
ABC-1	1.02
BEN	0.799
CAL-12T	1.04
COR-L23	0.836
COR-L 105	1.14
Calu-6	0.795
ChaGo-K-1	0.864
EBC-1	0.103
EMC-BAC-2	0.976
EPLC-272H	0.784
H3255	0.747
HARA	1
HCC-15	0.905
HCC-78	0.662
HCC-366	0.955
HCC-827	0.807

Cell Line	relative viability
HOP-62	0.985
IA-LM	1.11
LC-2-ad	0.692
NCI-H520	0.703
NCI-H661	0.834
NCI-H1299	1.11
NCI-H1563	1.01
NCI-H1623	1.01
NCI-H1650	1.3
NCI-H1703	0.474
NCI-H2009	1.13
NCI-H2023	0.909
NCI-H2228	0.671
NCI-H2342	1
SK-LU-1	0.69
SK-MES-1	0.912
SW 900	0.846
SW 1573	0.788
UMC-11	1.1

same assay, conditions: first compound 1000 µM

Cell Line	relative viability
201T	0.824
A549	0.944
A-427	1.23
ABC-1	0.287
BEN	1.33
CAL-12T	0.76
COR-L23	0.975
COR-L 105	0.791
Calu-6	0.821
ChaGo-K-1	0.962
EBC-1	0.0951
EKVX	0.303
EMC-BAC-2	1.09
EPLC-272H	1.09
H3255	0.877
HARA	1.09
HCC-15	0.911
HCC-78	0.79
HCC-366	0.943
HCC-827	0.889

Cell Line	relative viability
HOP-62	1
IA-LM	1.28
LC-2-ad	0.624
NCI-H520	0.953
NCI-H661	0.916
NCI-H1299	1.13
NCI-H1563	1.05
NCI-H1623	0.864
NCI-H1650	1.18
NCI-H1703	0.496
NCI-H2009	1.04
NCI-H2023	0.47
NCI-H2228	0.768
NCI-H2342	1.21
SK-LU-1	0.79
SK-MES-1	1.18
SW 900	0.882
SW 1573	1.1
UMC-11	1.07

compound: N#CC1(c2ccc(NC(=O)c3cccnc3NCc3ccncc3)cc2)CCCC1 [Apatinib] + Cc1nc(NC(=O)N2CCC[C@H]2C(N)=O)sc1-c1ccnc(C(C)(C)C(F)(F)F)c1 [Alpelisib] (partner 2 µM); assay: as above; settings: first compound 0.08 µM
Procedure, shortened: as §1

Cell Line	relative viability
201T	1.01
A549	0.784
A-427	1.14
BEN	1.04
CAL-12T	1.11
COR-L23	0.966
COR-L 105	1.01
Calu-6	1.02
EBC-1	0.844
EKVX	0.92
EMC-BAC-2	0.759
EPLC-272H	1.04
H3255	0.665
HARA	1.07
HCC-15	0.911
HCC-44	0.854
HCC-78	0.414
HCC-366	0.417

Cell Line	relative viability
HCC-827	0.999
HOP-62	0.727
IA-LM	0.793
LC-2-ad	0.9
NCI-H520	0.924
NCI-H661	0.576
NCI-H1299	1.06
NCI-H1563	0.967
NCI-H1703	0.289
NCI-H1792	0.794
NCI-H2009	1.13
NCI-H2023	0.64
NCI-H2228	0.785
SK-LU-1	1.15
SK-MES-1	0.825
SW 1573	0.829
UMC-11	1.05

same assay, conditions: first compound 0.253 µM

Cell Line	relative viability
201T	1.08
A549	0.844
A-427	1.02
ABC-1	1.2
BEN	0.92
CAL-12T	1.13
COR-L23	0.743
COR-L 105	1.23
Calu-6	1.12
EBC-1	0.935
EKVX	0.861
EMC-BAC-2	0.785
EPLC-272H	0.904
H3255	0.674
HARA	0.837
HCC-15	0.904
HCC-44	0.784
HCC-78	0.291

Cell Line	relative viability
HCC-366	0.46
HCC-827	0.991
IA-LM	0.673
LC-2-ad	0.798
NCI-H520	0.865
NCI-H661	0.43
NCI-H1299	1.05
NCI-H1563	0.982
NCI-H1703	0.252
NCI-H1792	0.743
NCI-H2009	1.2
NCI-H2023	0.675
NCI-H2228	0.738
SK-LU-1	1.15
SK-MES-1	0.928
SW 1573	0.917
UMC-11	0.834

same assay, conditions: first compound 0.8 µM

Cell Line	relative viability
201T	1.03
A549	0.919
A-427	1.19
ABC-1	1.1
BEN	0.983
CAL-12T	1.22
COR-L23	0.772
COR-L 105	0.82
Calu-6	0.956
EBC-1	0.88
EKVX	0.882
EMC-BAC-2	0.76
EPLC-272H	0.841
H3255	0.569
HARA	0.852
HCC-15	0.839
HCC-44	0.745
HCC-78	0.364

Cell Line	relative viability
HCC-366	0.4
HCC-827	0.831
HOP-62	1.15
IA-LM	0.665
LC-2-ad	0.802
NCI-H520	0.918
NCI-H661	0.564
NCI-H1299	1.03
NCI-H1563	0.929
NCI-H1703	0.25
NCI-H1792	0.68
NCI-H2009	1.1
NCI-H2023	0.587
NCI-H2228	0.648
SK-LU-1	0.979
SK-MES-1	0.822
SW 1573	0.757
UMC-11	0.848

same assay, conditions: first compound 2.53 µM

Cell Line	relative viability
201T	1.09
A549	0.78
A-427	1.02
ABC-1	1.01
BEN	0.862
CAL-12T	1.04
COR-L23	0.774
COR-L 105	0.921
Calu-6	0.895
EBC-1	0.734
EKVX	0.761
EMC-BAC-2	0.751
EPLC-272H	0.971
H3255	0.614
HARA	0.735
HCC-15	0.891
HCC-44	0.766
HCC-78	0.25
HCC-366	0.308
HCC-827	0.825
HOP-62	0.801
IA-LM	0.558
LC-2-ad	0.824
NCI-H520	0.685
NCI-H661	0.623
NCI-H1299	1.04
NCI-H1563	0.93
NCI-H1703	0.175
NCI-H1792	0.641
